Measured values as given in US7794964B2, “Biochip for the detection of phosphorylation and the detection method using the same” (Korea Atomic Energy Research Institute, priority 2008, dated 2010).

Columns and labels:
PKC (Protein Kinase C) = experiment: Phosphorylation of PKC substrate on biochip using [γ-32P]ATP; format: biochemical; conditions: 0.3 mg/ml substrate on aldehyde treated slide glass; 10 unit/ml PKC; 0.1 μCi/μl [γ-32P]ATP; BSA negative control
Protocol: (§1) To fix substrate on the aldehyde-treated slide glass (Nuricell Inc., Korea), 0.1 mg/ml of the Mep45-kinase substrate fusion protein or 1.25 μg/ml of peptide substrate (Promega, Madison, Wis.) was integrated. Particularly, the recombinant Mep45-kinase substrate fusion protein solution (10% glycerol, PBS, pH 7.5) was prepared at the concentration of 0.1 mg/ml, and this substrate solution was integrated on the aldehyde-treated slide glass at the spot intervals of 300 μm by using microarray device (Genetix Ltd, UK). The size of the spot was regulated to be 300 μm. The integrated biochip was reacted in a humid chamber at room temperature for one hour, leading to fixation.
(§2) The biochip constructed in Example 2 was washed three times with PBS (200 mM NaCl, 3 mM KCl, 2 mM KH2PO4, 1 mM Na2HPO4, pH 7.5), followed by reaction of the kinase and substrate on the chip. Particularly, the chip was washed with kinase buffer (40 mM Tris-HCl, 20 mM MgCl2, 0.1 mg/ml BSA, pH 7.5) once. […]
(§3) 0.3 mg/ml of AAKIQASFRGHMARKK (SEQ. ID. NO: 1) and Mep45 fusion substrate were integrated on the aldehyde treated slide glass, followed by phosphorylation using 10 unit/ml of PKC and 0.1 μCi/μl of [γ-^32P]ATP. Phosphorylation was measured by using X-ray film or X-ray fluorescence spectrometer. […]

cdc2 protein kinase = cdc2 protein kinase (Homo sapiens, UniProt P06493); experiment: Phosphorylation of cdc2 protein kinase substrate on biochip using [γ-32P]ATP; format: biochemical; conditions: 1.0 mg/ml substrate on aldehyde treated slide glass; 10 unit/ml cdc2 protein kinase; 0.1 μCi/μl [γ-32P]ATP; BSA negative control
Chain of cdc2 protein kinase (P06493 whole entry): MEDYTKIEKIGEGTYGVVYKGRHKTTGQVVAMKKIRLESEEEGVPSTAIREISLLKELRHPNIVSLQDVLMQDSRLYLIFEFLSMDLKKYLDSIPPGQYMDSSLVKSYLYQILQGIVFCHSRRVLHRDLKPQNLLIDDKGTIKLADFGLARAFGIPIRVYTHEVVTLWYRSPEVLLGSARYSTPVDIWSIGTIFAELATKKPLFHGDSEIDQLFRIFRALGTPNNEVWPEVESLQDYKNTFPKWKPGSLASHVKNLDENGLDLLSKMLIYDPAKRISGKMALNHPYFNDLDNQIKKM
Chain of cdc2 protein kinase (P14635 whole entry partner): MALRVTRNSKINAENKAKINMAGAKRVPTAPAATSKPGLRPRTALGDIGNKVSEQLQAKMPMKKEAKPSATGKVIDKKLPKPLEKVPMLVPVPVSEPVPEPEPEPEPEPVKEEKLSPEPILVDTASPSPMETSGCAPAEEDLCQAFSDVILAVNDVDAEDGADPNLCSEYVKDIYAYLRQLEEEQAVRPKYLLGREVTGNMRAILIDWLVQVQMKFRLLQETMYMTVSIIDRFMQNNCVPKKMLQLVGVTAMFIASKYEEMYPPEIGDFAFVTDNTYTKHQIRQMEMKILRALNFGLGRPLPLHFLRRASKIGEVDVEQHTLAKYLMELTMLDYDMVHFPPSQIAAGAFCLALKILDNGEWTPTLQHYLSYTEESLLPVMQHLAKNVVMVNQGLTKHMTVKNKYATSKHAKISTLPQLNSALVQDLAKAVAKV
Protocol: as §1, §2
as §3, with “1.0” for “0.3”, “PKTPKKAKKL” for “AAKIQASFRGHMARKK”, “2)” for “1)”, “cdc2 protein kinase” for “PKC”

Sequence | phosphorylation signal on the spot (X-ray film or X-ray fluorescence spectrometer) (PKC (Protein Kinase C)) | phosphorylation signal on the spot (X-ray film or X-ray fluorescence spectrometer) (cdc2 protein kinase)
AAKIQASFRGHMARKK (Protein Kinase C substrate) [peptide substrate for PKC (Protein Kinase C)] | clear signal was detected | –
PKTPKKAKKL (cdc2 Protein Kinase substrate) [peptide substrate for cdc2-PK (cdc2 Protein Kinase)] | – | clear signal was detected
